Measured values as given in PMC9793460, “Food effect risk assessment in preformulation stage using material sparing μFLUX methodology” (ADMET & DMPK, 2022).
Where a name gives a salt, the structure may show the parent alone. Read-outs that look alike come from different tables or passages of the source. Marks after values point to notes of the source that are not given here.

Experiments:
[1] = μFLUX dissolution/flux test, FaSSIF or FeSSIF donor, acceptor sink buffer receiver; assay type: in vitro ADME; details: for Flux Fa (±SD; n=3) / Flux Fe (±SD; n=3): unformulated powder, initial flux excluding lag time, 37 °C; for Flux Ratios (Fed/Fasted): FeSSIF/FaSSIF; for Food effect indicated by flux ratio: prediction from FeSSIF/FaSSIF flux ratio
Experimental: Dissolution/flux tests were performed using a μFLUX apparatus (Pion Inc., Billerica, MA, USA) with 4 side-by-side donor-receiver chambers separated by a lipophilic barrier. Prior to the assay, the artificial GIT-mimicking membrane was prepared by impregnating a PVDF filter support material (polyvinylidenfluoride, 1.54 cm^2 open area, 0.45 μm pore size, 120 μm thickness, 70 % nominal porosity) with 25 μL of 20 % lecithin in dodecane lipid solution (GIT Lipid, Pion Inc., Billerica, MA, USA). The donor chambers were then filled with 20 ml of biorelevant media (FaSSIF or FeSSIF) while the receiver compartments were filled with 20 ml of acceptor sink buffer (ASB, Pion Inc., Billerica, MA, USA). The ASB is a HEPES (4-(2-hydroxyethyl)-1-piperazineethanesulfonic acid) based pH 7.4 buffer containing chemical scavengers (surfactants micelles) that allow to maintain sink conditions during the experiments. The composition of the membrane and the receiver solution are identical to the Double-Sink PAMPA model, a non-cell-based method predicting of passive transcellular intestinal absorption. The temperature in both chambers was maintained at 37 °C and the media were stirred at 100 rpm.
Model compounds were added at the start of the experiment in the donor chambers as unformulated powder at a solid load equivalent to the lowest marketed dose normalized to 250 mL stomach volume. In some cases, to counter for experimental limitation due to low signal detection or high turbidity, a higher or lower dose was selected.
Standards for each model compound were prepared by sequential addition of a stock solution of pure API pre-dissolved in organic solvents (either methanol or DMSO) to the corresponding medium. The area under the 2nd derivative spectra curves was used to calculate the concentrations. The wavelength range was selected individually for each compound in the way to avoid sensitivity issues. […] The drug concentration in the donor and receiver chambers was calculated from the UV absorbance of the samples using the corresponding standard curve. For samples with low permeability, an additional μFLUX donor-receiver pair containing described reagents except API was included in parallels and used as a corrective “blank” at the corresponding time point to ensure that the UV signal of API could be differentiated from the spectral noise of the biorelevant media. Concentration-time profiles were monitored over at least 180 min, in triplicate for each drug unless otherwise mentioned.
The flux (J) across the membrane representing the amount (m) of material crossing one unit area (A) of the membrane per unit time (t), was calculated from the concentration-time profiles in the receiver compartments:
A is the area of the membrane (1.54 cm^2), V is the volume of the receiver compartment (20 mL) and dc/dt (μg mL^-1 min^-1) is the slope of the concentration time profile of the drug in the receiver compartment.
The flux values were calculated by fitting the concentration-time profile in the receivers to a straight line to determine the slope and then normalizing the slope to the volume and surface area of the membrane following equation (1). Time intervals to calculate the flux were selected based on the apparent linearity of the concentration-time profile in the receivers, capturing the initial flux process and excluding the lag time unless otherwise is stated.

[2] = Solubility in biorelevant media (FaSSIF / FeSSIF); assay type: physicochemical; details: for Solubility ratio (Fed/Fasted): FeSSIF/FaSSIF, calculated from Table 2 solubilities; for Food effect indicated by solubility ratio: prediction from FeSSIF/FaSSIF solubility ratio
Experimental: Solubility measurements were performed by adding an excess amount of drug into FaSSIF or FeSSIF media in a glass vial. […] After equilibration, samples were centrifuged/filtered using NANOSEP with 0.2 μm Bio-inert centrifugal devices (PAL Corporation). The filtrate was immediately diluted accordingly into acetonitrile/water 50/50 and analyzed by HPLC.
Model drugs categorized as BCS I - IV classes were selected. The drugs included mono- and diprotic acids and bases as well as non-ionizable compounds. […] The physicochemical properties of the model compounds, pKa, log P [18, 19] and solubility in biorelevant media [[20-26]] were collected from the literature and are depicted in Table 2.

[3] = μFLUX dissolution/flux test, FaSSIF or FeSSIF donor, acceptor sink buffer receiver; assay type: in vitro ADME; details: 0.4 mg/mL
[4] = cited from earlier work; for Solubility FaSSIF (pH 6.5) / Solubility FeSSIF (pH 5.0): some values determined in the authors' lab (not marked)
[5] = cited from earlier work; for FE (food effect observed in clinic): assigned from AUC and Cmax ratios of published clinical data; for Observed AUC Ratio (Fed/Fasted) / Observed Cmax Ratio (Fed/Fasted): ratio of geometric means fed/fasted, published clinical data
[6] = cited from earlier work; for Type: ionization type; for pKa: experimental, higher pKa where two are given
[7] = experimental; cited from earlier work

SMILES | Flux Fa (±SD; n=3) ([1]; FaSSIF donor) | Flux Fe (±SD; n=3) ([1]; FeSSIF donor) | Flux Ratios (Fed/Fasted) [1] | Food effect indicated by flux ratio [1] | Solubility ratio (Fed/Fasted) [2] | Food effect indicated by solubility ratio [2] | Solubility FaSSIF (pH 6.5) [4] | Solubility FeSSIF (pH 5.0) [4] | FE (food effect observed in clinic) [5] | Observed AUC Ratio (Fed/Fasted) [5] | Observed Cmax Ratio (Fed/Fasted) [5] | further results
CCc1nn(CCCN2CCN(c3cccc(Cl)c3)CC2)c(=O)n1CCOc1ccccc1 [Nefazodone HCl, nefazodone hydrochloride] | 0.521 ± 0.179 | 1.077 ± 0.084 | 2.07 | negative food effect | 1.52 | positive food effect | 252 μg/mL | 383 μg/mL | negative food effect | 0.78 | 0.93 | Flux Fa (±SD; n=3), suspension ([3]; FaSSIF donor, sample introduced as slurry of DS in the medium): 2.610 ± 0.618; Flux Fe (±SD; n=3), suspension ([3]; FeSSIF donor, sample introduced as slurry of DS in the medium): 1.923 ± 0.547; Flux Ratios (Fed/Fasted), suspension ([3]; FeSSIF/FaSSIF, sample introduced as slurry): 0.74
C#C[C@]1(O)CC[C@H]2[C@@H]3CCC4=Cc5oncc5C[C@]4(C)[C@H]3CC[C@@]21C [Danazol, danazol] |  |  |  |  |  |  |  |  |  |  |  | Type [6]: N
COC1=CC(=O)C[C@@H](C)[C@]12Oc1c(Cl)c(OC)cc(OC)c1C2=O [Griseofulvin] | 0.205 ± 0.011 | 0.218 ± 0.009 |  |  |  |  | 23.4 μg/mL | 29.2 μg/mL |  |  |  | Type [6]: N; log P [7]: 2.2
Cc1cn([C@H]2C[C@H](N=[N+]=[N-])[C@@H](CO)O2)c(=O)[nH]c1=O [Zidovudine, zidovudine] | 0.037 ± 0.007 | 0.034 ± 0.002 |  |  |  |  |  |  | negative food effect |  |  | pKa [6]: 9.40 ± 0.01^a; log P [7]: 0.13
CNCCC(Oc1ccc(C(F)(F)F)cc1)c1ccccc1 (centres unmarked) [Fluoxetine HCl, fluoxetine hydrochloride] |  |  |  |  |  |  |  |  | none |  |  | FE (food effect observed in clinic) ([5]; listed as FXT): not influenced by presence or absence of food
CCCCc1oc2ccccc2c1C(=O)c1cc(I)c(OCCN(CC)CC)c(I)c1 [Amiodarone, Amiodarone hydrochloride] |  |  |  |  |  |  |  |  | positive food effect |  |  | Flux Fa (±SD; n=3), early ([1]; FaSSIF donor, early flux, first 2 hours excluding lag time): 0.017± 0.003; Flux Fa (±SD; n=3), late ([1]; FaSSIF donor, late flux, 2.5-9 hours interval): 0.579 ± 0.095; Flux Fe (±SD; n=3), early ([1]; FeSSIF donor, early flux, first 2 hours excluding lag time): 0.073 ± 0.001; Flux Fe (±SD; n=3), late ([1]; FeSSIF donor, late flux, 2.5-9 hours interval): 1.277± 0.109

Further lines, with some results ahead:

Flux Fa (±SD; n=3) ([1]; FaSSIF donor) | Flux Fe (±SD; n=3) ([1]; FeSSIF donor) | Flux Ratios (Fed/Fasted) [1] | Food effect indicated by flux ratio [1] | Solubility ratio (Fed/Fasted) [2] | Food effect indicated by solubility ratio [2] | SMILES | Solubility FaSSIF (pH 6.5) [4] | Solubility FeSSIF (pH 5.0) [4] | FE (food effect observed in clinic) [5] | Observed AUC Ratio (Fed/Fasted) [5] | Observed Cmax Ratio (Fed/Fasted) [5] | further results
0.018 ± 0.003 | 0.208 ± 0.036 |  |  |  |  | NS(=O)(=O)c1cc(C(=O)O)c(NCc2ccco2)cc1Cl [Furosemide, furosemide] |  |  | negative |  |  | fraction of drug deprotonated ([6]; pH 5.0, species distribution curve): ~ 97%; FE (food effect observed in clinic) ([5]; listed as furosemide): negative food effect
0.186 ± 0.021 | 0.632 ± 0.077 | 3.4 | positive food effect | 2.24 | positive food effect | Cc1ccc(-c2cc(C(F)(F)F)nn2-c2ccc(S(N)(=O)=O)cc2)cc1 [Celecoxib, celecoxib] |  | 103.3 μg/mL | positive | 1.19 | 1.29 | pKa [6]: 9.38 ± 0.08^a; FE (food effect observed in clinic) ([5]; listed as celecoxib): positive food effect
0.020 ± 0 | 0.020 ± 0 |  |  |  |  | NNC(=O)c1ccncc1 [Isoniazid, isoniazid] | > 60,000 μg/mL | > 60,000 μg/mL | negative food effect | 0.88 | 0.49 | Solubility in FaSSIF ([4]; FaSSIF): > 60 mg/mL; Solubility in FeSSIF ([4]; FeSSIF): > 60 mg/mL
1.751 ± 0.540 | 2.168 ± 0.323 | 1.24 | no food effect | 3.85 | positive food effect | COC(=O)[C@H](c1ccccc1Cl)N1CCc2sccc2C1 [Clopidogrel bisulfate, clopidogrel bisulfate] | 130 μg/mL | 500 μg/mL | none | 1.02 | 0.79 | FE (food effect observed in clinic) ([5]; listed as clopidogrel bisulfate): no food effect
